Data as given in patent publication US4203909A, “Furan compounds” (Bristol-Myers Company, priority 1978, dated 1980).
One block for each compound: values may come before it.

What was measured:
[1] = target: T1, histamine H2 -receptors (isolated guinea pig right atria) (Cavia porcellus, UniProt P47747); experiment: Histamine H2-receptor antagonism, isolated guinea pig atria assay; assay type: cell-based, guinea pig (male Hartley strain); details: for Histamine ED50 With 95% Confidence Limits: histamine ED50 in presence of test compound 3 × 10^-5 M, 30 minute incubation; for Concentration-Response Curve Displacement Factor / Activity Ratio Relative to Cimetidine: test compound 3 × 10^-5 M; for Activity Ratio Relative to Cimetidine: cimetidine = 1.0
T1 construct: The spontaneously beating right atrium was dissected free from other tissues; from tissue; host or cells: isolated spontaneously beating right atrium of male Hartley guinea pigs
Description: Subsequent investigations by Hughes and Coret, Proc. Soc. […] Black et al., Agents and Actions, 3, 133 (1973) and Brimblecombe et al., Fed. […] The present comparative studies were carried out using a modification of the procedure reported by Reinhardt et al., Agents and Actions, 4, 217 (1974).
Male Hartley strain guinea pigs (350-450 gm.) were sacrificed by a blow on the head. The heart was excised and placed in a Petri dish of oxygenated (95% O2, 5% CO2) modified Krebs solution (g./liter: NaCl 6.6, KCl 0.35, MgSO4.7 H2 O 0.295, KH2 PO4 0.162, CaCl2 0.238, NaHCO3 2.1 and dextrose 2.09). The spontaneously beating right atrium was dissected free from other tissues and a silk thread (4-0) attached to each end. The atrium was suspended in a 20 ml. muscle chamber containing oxygenated modified Krebs solution maintained at 32° C. Atrial contractions were recorded isometrically by means of a Grass FT 0.03 force displacement transducer and recordings of contractile force and rate were made with a Beckman RP Dynograph.
A resting tension of 1 g. was applied to the atrium and it was allowed to equilibrate for 1 hour.
Concentration-response curve displacement factors were calculated as follows: [formula] […] [formula]

gastric acid output [2] = experiment: Gastric antisecretory activity in the two hour pylorus ligated (Shay) rat; assay type: in vivo, rat (male Long Evans); details: for Percent Inhibition Acid Output / ED50: 2 h; for ED50: two hour pylorus ligated rat; for Potency Ratio: relative to cimetidine = 1.00
Excerpt: The pyloric ligation procedure in the rat was designed by Shay et al., Gastroenterology, 5, 53 (1945) for the study of perforating gastric ulcers; however, as the method became known, it was also employed as a means of studying rat gastric secretion, Shay et al., Gastroenterology, 26, 906 (1954), Brodie, D. A., Am. J. Dig. Dis., 11, 231 (1966). A modification of this procedure is presently used to evaluate compounds for gastric antisecretory activity.
Male Long Evans rats, 280-300 gm., are used. The aimals are placed in individual cages and fasted for 24 hours with free access to water. Under ther anesthesia, the stomach is reached through a midline incision, and a cotton-thread ligature is placed around the pylorus. […] All compounds are solubilized with one equivalent of HCl and brought to the proper volume with water. The animals are returned to their cages from which the water bottles have been removed and two hours later are sacrificed with ether. The stomach is removed and the two hour gastric collection is drained into a graduated test tube for volume determination. Titratable acidity is measured by titrating a one ml. sample to pH 7.0 with 0.02 N NaOH, using an Autoburet and an electrometric pH meter (Radiometer). Titratable acid output is calculated in microequivalents by multiplying the volume in milliliters by the acid concentration in milliequivalents per liter. The percent inhibition of acid output is calculated as follows [formula]

gastric secretion = details: cited from earlier work
H2 receptors = details: cited from earlier work
[3] = clinical; cited from earlier work
gastric acid output [4] = experiment: Gastric antisecretory activity in the gastric fistula dog; assay type: in vivo, beagle dogs; details: for Percent Inhibition Acid Output: histamine infusion
Description: Thomas type [Thomas, J. E., Proc. Soc. Exp. Biol. Med., 46, 260 ([…])] stainless steel cannulae are inserted into the stomachs of beagle dogs (10-12 kg.) just orad to the pyloric gland area near the greater curvature to provide a chronic gastric fistula. Animals are allowed to recover for at least two months before any testing is done. Dogs are fasted overnight (~18 hours) with water ad lib prior to each experiment. The dogs are placed in a sling and an eight inch inside needle catheter (C. R. Baird, Inc.) with a two inch 17 gauge needle is inserted into a leg vein for purposes of drug administration. Gastric secretions are collected every 15 minutes by gravity drainage from the opened cannula. […] A modification of the procedure described by Grossman and Konturek, Gastroenterology, 66, 517 (1974) was followed. […] Each 15 minute sample of gastric juice is measured to the nearest 0.5 ml. and titratable acidity against 0.02 N NaOH (endpoint pH 7.0) is measured with an Autoburet and pH meter (radiometer). The percent inhibition of acid output is calculated as described in the pylorus ligated rat procedure.

peptic ulcer disease = details: clinical evaluation; cited from earlier work
histamine H2 -receptors = details: isolated guinea pig right atria; cited from earlier work

T1 sequence (P47747 whole entry): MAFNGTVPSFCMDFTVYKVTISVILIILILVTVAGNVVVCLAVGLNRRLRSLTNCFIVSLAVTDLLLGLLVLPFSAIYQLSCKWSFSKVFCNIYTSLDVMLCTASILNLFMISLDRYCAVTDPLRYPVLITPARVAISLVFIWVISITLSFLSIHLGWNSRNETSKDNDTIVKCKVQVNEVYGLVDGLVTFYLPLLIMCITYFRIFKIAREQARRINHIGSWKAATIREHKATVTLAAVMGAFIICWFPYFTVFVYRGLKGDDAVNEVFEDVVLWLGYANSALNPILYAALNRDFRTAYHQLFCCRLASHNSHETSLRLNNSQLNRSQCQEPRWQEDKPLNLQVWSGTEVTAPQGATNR

Compound: CNC(=C[N+](=O)[O-])NCCSCc1ccc(CN(C)C)o1 [Compound XVI, reference compound]
- Histamine ED50 With 95% Confidence Limits [1]: 11.97 µg/mL
- Concentration-Response Curve Displacement Factor [1]: 38.61
- Percent Inhibition Acid Output (gastric acid output [2]; 5 μ Mole/kg ip): 42%
- Percent Inhibition Acid Output (gastric acid output [2]; 10 μ Mole/kg ip): 77%
- Percent Inhibition Acid Output (gastric acid output [2]; 20 μ Mole/kg ip): 89%
- ED50 (gastric acid output [2]; ip): 4.52 µmol/kg
- Potency Ratio (gastric acid output [2]; ip): 2.31 times

Compound: CNC(=S)NCCSCc1nc[nH]c1C [Metiamide]
- oral activity (gastric secretion; man, oral): orally active in man
- H2 antagonist potency/effectiveness (in words) (H2 receptors): more potent than burimamide
- toxicity (agranulocytosis) [3]: toxicity (agranulocytosis)

- Histamine ED50 With 95% Confidence Limits [1]: 32.70 µg/mL
- activity relative to Compound XVI ([1]; isolated guinea pig right atria, vs Compound XVI): about 4.80 times
- Concentration-Response Curve Displacement Factor [1]: 181.67
Compound: C#CCNC(=C[N+](=O)[O-])NCCSCc1ccc(CN(C)C)o1 [BL-5966, 1-Nitro-2-(2-propynylamino)-2-{2-[(5-dimethylaminomethyl-2-furyl)methylthio]ethylamino}ethylene]
- potency as histamine H2 receptor antagonist (in words) ([1]; isolated guinea pig atria): more potent than either cimetidine or Compound XVI
- Percent Inhibition Acid Output (gastric acid output [2]; 0.625 μ Mole/kg ip): 27%
- Percent Inhibition Acid Output (gastric acid output [2]; 1.25 μ Mole/kg ip): 36%
- Percent Inhibition Acid Output (gastric acid output [2]; 2.5 μ Mole/kg ip): 59%
- Percent Inhibition Acid Output (gastric acid output [2]; 5 μ Mole/kg ip): 83%
- ED50 (gastric acid output [2]; ip): 1.8 µmol/kg
- Potency Ratio (gastric acid output [2]; ip): 5.81 times
- potency relative to Compound XVI (gastric acid output [2]; ip, vs Compound XVI): 2.52 times
- potency as inhibitor of gastric secretion (in words) (gastric acid output [2]; rats): more potent than either cimetidine or Compound XVI
- Percent Inhibition Acid Output (gastric acid output [4]; 0.0469 μ Mole/kg iv): 32%
- Percent Inhibition Acid Output (gastric acid output [4]; 0.0938 μ Mole/kg iv): 47%
- Percent Inhibition Acid Output (gastric acid output [4]; 0.1875 μ Mole/kg iv): 46%
- Percent Inhibition Acid Output (gastric acid output [4]; 0.375 μ Mole/kg iv): 90%
- ED50 (gastric acid output [4]; Canis lupus familiaris, iv, gastric fistula dog): 0.12 µmol/kg
- potency as inhibitor of gastric secretion (in words) (gastric acid output [4]; dogs): more potent than either cimetidine or Compound XVI
- Potency Ratio (gastric acid output [4]; iv, relative to cimetidine = 1.0): 11.5 times

Compound: CNC(=S)NCCCCc1cnc[nH]1 [Burimamide]
- inhibition of gastric secretion (gastric secretion; animals and man): inhibits gastric secretion in animals and man
- clinical effectiveness (peptic ulcer disease): first clinically effective H2 -receptor antagonist
- H2-receptor mediated effect in atria (in words) (histamine H2 -receptors): competitive antagonist of these receptors

- Histamine ED50 With 95% Confidence Limits [1]: 4.28 µg/mL
- Concentration-Response Curve Displacement Factor [1]: 23.78
- Activity Ratio Relative to Cimetidine [1]: 0.94 times
- Activity Ratio Relative to Cimetidine ([1]; listed as BL-5933): about 0.94 times
Compound: C#CCNC(=NCCSCc1ccc(CN(C)C)o1)NC#N [BL-5993, N-Cyano-N'-(2-propyn-1-yl)-N"-{2-[(5-dimethylaminomethyl-2-furyl)methylthio]ethyl}guanidine]
- Percent Inhibition Acid Output (gastric acid output [2]; 10 μ Mole/kg ip): 34%
- Percent Inhibition Acid Output (gastric acid output [2]; 20 μ Mole/kg ip): 71%
- ED50 (gastric acid output [2]; ip): 12.5 µmol/kg
- Potency Ratio (gastric acid output [2]; ip): 0.83 times

Compound: CN=C(NC#N)NCCSCc1nc[nH]c1C [Cimetidine]
- Histamine ED50 With 95% Confidence Limits [1]: 4.80 µg/mL
- Concentration-Response Curve Displacement Factor [1]: 25.26
- H2 antagonist potency/effectiveness (in words) (H2 receptors): as effective an H2 antagonist as metiamide
- toxicity (agranulocytosis) [3]: without producing agranulocytosis
- clinical effectiveness (peptic ulcer disease): effective therapeutic agent in the treatment of peptic ulcer disease

Compound: NCCc1c[nH]cn1 [Histamine]
- H2-receptor mediated effect in atria (in words) (histamine H2 -receptors): concentration-related increases in the contractile rate
